The values that follow come from patent US20260317319A1, “NOVEL ERGOLINES AND METHODS OF TREATING MOOD DISORDERS” (Gilgamesh Pharma Inc., priority 2023, published 2026).

Experiment [1] has as its target T1, 5-HT2C receptor (Homo sapiens, UniProt P28335).
T1 sequence (P28335 33-458): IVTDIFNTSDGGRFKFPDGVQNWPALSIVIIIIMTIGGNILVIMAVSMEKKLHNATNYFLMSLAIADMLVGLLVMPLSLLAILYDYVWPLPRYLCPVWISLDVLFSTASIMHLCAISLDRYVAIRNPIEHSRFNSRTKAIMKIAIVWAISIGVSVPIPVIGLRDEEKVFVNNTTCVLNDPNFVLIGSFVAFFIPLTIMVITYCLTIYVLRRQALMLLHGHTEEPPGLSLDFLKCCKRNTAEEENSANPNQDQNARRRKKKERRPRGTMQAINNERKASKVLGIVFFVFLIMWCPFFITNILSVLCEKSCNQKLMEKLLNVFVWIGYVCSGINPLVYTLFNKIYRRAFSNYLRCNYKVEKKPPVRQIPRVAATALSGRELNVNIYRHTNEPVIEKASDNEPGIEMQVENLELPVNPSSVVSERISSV
The experiment can be described thus: Ca2+ flux functional assay at 5-HT2C (WuXi 5-HT2C protocol). Also on record: expressed in transfected cells. Particulars: for Emax: agonist, tested using WuXi 5-HT2C protocol, max dose, read-out: 5-HT2C % Act @ Max Dose (* WuXi protocol). Format: cell-based. In outline: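 Agonist mode FLIPR Ca2+ flux in stably transfected cells loaded with Fluo-4 Direct dye and 2.5 mM probenecid (final), 50 min at 37 °C. Compounds tested as 10-point 1:3.16 dilutions; fluorescence read after addition.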
(Calcium assays in cells follow changes in intracellular calcium, usually with a dye or a luminescent sensor.)

In experiment [2] the target is T1, 5-HT2C receptor. The experiment can be described thus: cell-based. As to conditions: read-out: 5-HT2C % Act @ Max Dose.
Experiment [3] concerns C57BL/6 mice. The experiment can be described thus: Mouse head twitch response (HTR) assay (observer-counted). The class given is in vivo. As to conditions: SC; for efficacy in HTR assay: maximal effect. How it is done:
Agonists of the 5-HT2A receptor are well known to induce this effect in rodents and the potency of this HTR is correlated with hallucinogenic potency in humans.
Animals. Adult male C57BL/6 mice, aged 6-8 weeks (body weight 20-25 g) were used in this experiment. Animals were housed under controlled temperatures and 12-hour light/dark cycles (lights on between 07:00-19:00 h), with ad libitum food and water. This study was carried out in strict accordance with the requirements of the Committee for the Purpose of Control and Supervision of Experiments on Animals (CPCSEA), India. All efforts were made to minimize suffering.
Procedure. Mice were administered one dose of the drug and immediately placed into a small open field for behavioral observation. Animals were observed continuously for 20 mins and the number of head twitches (HTs) were counted by an observer blind to the treatment condition.
Statistical Analysis. The data points shown are the mean±standard error of the mean (SEM). Analysis was performed using GraphPad Prism 6. Curves were fit using a non-linear gaussian distribution to calculate ED50 and Emax values.
Additional disclosed compounds were tested in the mouse head twitch response (HTR) assay according to the procedure described in Example 57 (administered SC). […] Lastly, compounds with much larger benzyl and phenethyl substituents on the amine nitrogen (e.g., 10 and 11) were low efficacy in this assay, consistent with their bias toward arrestin signaling (see Example 55).

Experiment [4] has as its system C57BL/6 mice. The experiment can be described thus: Automated mouse head twitch response (HTR) assay (video tracking). As to conditions: for # HTR/20 min at Most Efficacious Dose / Most Efficacious Dose for Peak HTR/min / Most Efficacious Dose for # HTR/20 min / Peak HTR/min at Most Efficacious Dose: sc. The class given is in vivo. How it is done:
Disclosed compounds were tested for their ability to induce a head twitch response (HTR) in mice using an automated video tracking procedure, with the results summarized in Table 8 and FIG. 4.
Animals. Adult male C57BL/6 mice aged 8-10 weeks (Jackson Labs, Bar Harbor, ME; body weight 18-25 g) were used in this experiment. Animals were group housed under environmentally controlled temperatures and 12-hour light/dark cycles (lights on between 06:00-18:00 h), with ad libitum food and water. Mice were habituated to the facility for at least 5 days prior to testing. All animal procedures were approved by the local IACUC and conducted in accordance with the NIH Guide for the Care and Use of Laboratory Animals.
Procedure. Mice were administered one dose of the drug and immediately placed into a small open field for behavioral observation. High-speed video of animals' behavior was captured continuously for 20 min. Video recordings were imported into an image processing software, which detects multiple points of interest on each animal's body, including the left and right ear. HTR events were defined as periodic deviations of ear locations from temporally averaged ear locations. Predefined thresholds for magnitude and frequency of location deviations were used to filter HTR events from random head movements. The method was validated by comparing detected events with manual (human) observations and found to have an accuracy >95%. The total number of HTR events counted during the 20-min recording and the rate in HTR/min calculated over 2-min bins were determined for each animal at each dose.
Statistical Analysis. The data points shown are the mean±standard error of the mean (SEM).

Where [5] appears, read: agonist, Ca2+ flux, Eurofins DiscoverX protocol, max dose.
[6] abbreviates: most efficacious dose 3.2 mg/kg.
The mark [7] stands for this setting: 20 min recording, mean, at each compound's most efficacious dose (35*, 43*, 44*: suppressed below vehicle 14.5, dose is that of least suppression).
The mark [8] stands for this setting: dose giving highest peak HTR/min (35*, 43*, 44*: dose that resulted in the least suppression).
[9] abbreviates: dose giving most HTR/20 min (35*, 43*, 44*: dose that resulted in the least suppression).
The mark [10] stands for this setting: rate over 2-min bins, mean, at each compound's most efficacious dose (35*, 43*, 44*: suppressed below vehicle 1.62, dose is that of least suppression).

As usually defined, the EC50 is the concentration needed to bring the measured effect to its halfway point. Read a low EC50 as higher potency in that assay.

Entries after “also recorded” stand apart in the source; their conditions may differ.

As to `CCN(CC)C(=O)[C@@H]1C=C2c3cccc4[nH]cc(c34)C[C@H]2N(Cc2cccc(C#N)c2)C1` [Compound 76, (6aR,9R)—N,N-diethyl-7-(3-cyanobenzyl)-4,6,6a,7,8,9-hexahydroindolo[4,3-fg]quinoline-9-carboxamide], on 5-HT2C receptor [1], the EC50 was above 10 µM and the Emax amounted to 0.14%.

For the compound `CCCN1C[C@H](C(=O)N2[C@@H](C)C[C@@H]2C)C=C2c3cccc4[nH]cc(c34)C[C@H]21` [Compound 4, ((2S,4S)-2,4-dimethylazetidin-1-yl)((6aR,9R)-7-propyl-4,6,6a,7,8,9-hexahydroindolo[4,3-fg]quinolin-9-yl)methanone], the Emax at 5-HT2C receptor [2] (setting [5]) was 111%. Also, in the experiment with C57BL/6 mice [3], the “efficacy in HTR assay” value is given as “less efficacious than its N-methyl counterpart compound Int11; also recorded: lower efficacy than analogous compounds bearing other amide substituents”.

On to `CCN(CC)C(=O)[C@@H]1C=C2c3cccc4[nH]cc(c34)C[C@H]2N(CCc2ccccc2OC)C1` [Compound 11, (6aR,9R)—N,N-diethyl-7-(2-methoxyphenethyl)-4,6,6,7,8,9-hexahydroindolo[4,3-fg]quinoline-9-carboxamide], for which the “ED50 (HTR)” value in the experiment with C57BL/6 mice [3] (20 min, curve fit poor in some cases) is recorded as 2.205 mg/kg. In the experiment on C57BL/6 mice [3] (curve fit poor in some cases), the “Emax, HTR/20 min” value stood at 19.79 HTR/20 min. For the same compound, the “efficacy in HTR assay” value in the experiment on C57BL/6 mice [3] is on record as “low efficacy”. Moreover, the “# HTR/20 min at Most Efficacious Dose” value with C57BL/6 mice [3] (setting [6]) was 12.0 HTR/20 min.

Regarding `CC[C@@H](C)NC(=O)[C@@H]1C=C2c3cccc4[nH]cc(c34)C[C@H]2N(C)C1` [Int8], the Emax at 5-HT2C receptor [2] was 98.2%. The “HTR at most efficacious dose (bound)” value in the experiment on C57BL/6 mice [3] (20 min) is below 15 HTR. In addition, the “# HTR/20 min at Most Efficacious Dose” value in the experiment on C57BL/6 mice [4] (setting [7]) is on record as 23.625 HTR/20 min. In addition, the “Most Efficacious Dose for Peak HTR/min” value in the experiment on C57BL/6 mice [4] (setting [8]) was “(0.32) mg/kg, sc”. The “Most Efficacious Dose for # HTR/20 min” value with C57BL/6 mice [4] (setting [9]) is “(0.32) mg/kg, sc”. Moreover, the “Peak HTR/min at Most Efficacious Dose” value in the experiment with C57BL/6 mice [4] (setting [10]) is recorded as 2.06 HTR/min.

In the case of `CCCN1C[C@H](C(=O)NC(CC)CC)C=C2c3cccc4[nH]cc(c34)C[C@H]21` [Compound 6, (6aR,9R)—N-(pentan-3-yl)-7-propyl-4,6,6a,7,8,9-hexahydroindolo[4,3-fg]quinoline-9-carboxamide], the Emax on 5-HT2C receptor [2] (setting [5]) is 117%. Further, the “HTR at most efficacious dose (bound)” value in the experiment with C57BL/6 mice [3] (20 min) is given as above 15 HTR.

For the compound `CCN(CC)C(=O)[C@@H]1C=C2c3cccc4[nH]cc(c34)C[C@H]2N(C)C1` [LSD, lysergic acid diethylamide, reference compound], in the experiment with C57BL/6 mice [4] (in vivo), the “head twitch response, automated” value was “potent and robust increase in HTRs”; the “# HTR/20 min at Most Efficacious Dose” value stood at 44.62 HTR/20 min; the “Most Efficacious Dose for # HTR/20 min” value was “(0.1) mg/kg, sc”; the “Most Efficacious Dose for Peak HTR/min” value was “(0.032) mg/kg, sc”. In the experiment on C57BL/6 mice [4] (in vivo), the “Peak HTR/min at Most Efficacious Dose” value is 4.13 HTR/min.

Regarding `CCN(CC)C(=O)[C@@H]1C=C2c3cccc4[nH]cc(c34)C[C@H]2N(Cc2ccccc2)C1` [Compound 82, (6aR,9R)-7-benzyl-N,N-diethyl-4,6,6a,7,8,9-hexahydroindolo[4,3-fg]quinoline-9-carboxamide], the “# HTR/20 min at Most Efficacious Dose” value with C57BL/6 mice [4] (setting [7]) is reported as 11.25 HTR/20 min. Further, the “Most Efficacious Dose for Peak HTR/min” value in the experiment on C57BL/6 mice [4] (setting [8]) is on record as “(0.1) mg/kg, sc”. The “Most Efficacious Dose for # HTR/20 min” value in the experiment with C57BL/6 mice [4] (setting [9]) is recorded as “(0.1) mg/kg, sc”. Moreover, the “Peak HTR/min at Most Efficacious Dose” value with C57BL/6 mice [4] (setting [10]) was determined as 0.56 HTR/min. For the same compound, at 5-HT2C receptor [1], the 50% effective concentration (EC50) was above 10 µM and the Emax was found to be 15.6%.

Take `CCN(CC)C(=O)[C@@H]1C=C2c3cccc4[nH]cc(c34)C[C@H]2N(CCCF)C1` [Compound 2, (6aR,9R)—N,N-diethyl-7-(3-fluoropropyl)-4,6,6a,7,8,9-hexahydroindolo[4,3-fg]quinoline-9-carboxamide]: the Emax on 5-HT2C receptor [2] (setting [5]) is 105%. The “HTR at most efficacious dose (bound)” value in the experiment on C57BL/6 mice [3] (20 min) is above 15 HTR.

Regarding `C=CCN1C[C@H](C(=O)N[C@H](C)CC)C=C2c3cccc4[nH]cc(c34)C[C@H]21` [Compound 8, (6aR,9R)-7-allyl-N—((R)-sec-butyl)-4,6,6a,7,8,9-hexahydroindolo[4,3-fg]quinoline-9-carboxamide], the Emax on 5-HT2C receptor [2] (setting [5]) was determined as 108%. The “HTR at most efficacious dose (bound)” value in the experiment on C57BL/6 mice [3] (20 min) is above 15 HTR. Also, the “# HTR/20 min at Most Efficacious Dose” value with C57BL/6 mice [4] (setting [7]) is listed as 21.375 HTR/20 min. In the experiment on C57BL/6 mice [4] (setting [8]), the “Most Efficacious Dose for Peak HTR/min” value was “(3.2) mg/kg, sc”. For the same compound, the “Most Efficacious Dose for # HTR/20 min” value in the experiment on C57BL/6 mice [4] (setting [9]) is “(1) mg/kg, sc”. Besides, the “Peak HTR/min at Most Efficacious Dose” value in the experiment with C57BL/6 mice [4] (setting [10]) is 2.14 HTR/min.

Regarding `CCCN1C[C@H](C(=O)N[C@H](C)CC)C=C2c3cccc4[nH]cc(c34)C[C@H]21` [Compound 3, (6aR,9R)—N—((R)-sec-butyl)-7-propyl-4,6,6a,7,8,9-hexahydroindolo[4,3-fg]quinoline-9-carboxamide], the Emax at 5-HT2C receptor [2] (setting [5]) stood at 119%. Also, the “HTR at most efficacious dose (bound)” value with C57BL/6 mice [3] (20 min) is listed as above 15 HTR. The “# HTR/20 min at Most Efficacious Dose” value in the experiment on C57BL/6 mice [3] (most efficacious dose 0.32 mg/kg) was 27.0 HTR/20 min.

Turning to `CCN(CC)C(=O)[C@@H]1C=C2c3cccc4[nH]cc(c34)C[C@H]2N(Cc2cocn2)C1` [Compound 73, (6aR,9R)—N,N-diethyl-7-(oxazol-4-ylmethyl)-4,6,6a,7,8,9-hexahydroindolo[4,3-fg]quinoline-9-carboxamide], at 5-HT2C receptor [1], the response was half-maximal at 1.72 µM (EC50) and the Emax worked out at 74%.

For the compound `CCN(CC)C(=O)[C@@H]1C=C2c3cccc4[nH]cc(c34)C[C@H]2N(Cc2ccon2)C1` [Compound 70, (6aR,9R)—N,N-diethyl-7-(isoxazol-3-ylmethyl)-4,6,6a,7,8,9-hexahydroindolo[4,3-fg]quinoline-9-carboxamide], at 5-HT2C receptor [1], the EC50 was above 10 µM and the Emax is 23.9%.

Consider `CCN(CC)C(=O)[C@@H]1C=C2c3cccc4[nH]cc(c34)C[C@H]2N(Cc2cccc(O)c2)C1` [Compound 62, (6aR,9R)—N,N-diethyl-7-(3-hydroxybenzyl)-4,6,6a,7,8,9-hexahydroindolo[4,3-fg]quinoline-9-carboxamide], for which, at 5-HT2C receptor [1], the EC50 was above 10 µM and the Emax amounted to 20.3%.

`CCN(CC)C(=O)[C@@H]1C=C2c3cccc4[nH]cc(c34)C[C@H]2N(Cc2ccccc2OC)C1` [Compound 10, (6aR,9R)—N,N-diethyl-7-(2-methoxybenzyl)-4,6,6a,7,8,9-hexahydroindolo[4,3-fg]quinoline-9-carboxamide]: on 5-HT2C receptor [2] (setting [5]), the Emax was 13.4%. In addition, the “efficacy in HTR assay” value with C57BL/6 mice [3] was “low efficacy”. Besides, the “# HTR/20 min at Most Efficacious Dose” value with C57BL/6 mice [3] (setting [6]) is 6.5 HTR/20 min.
